# Substitutions are numbered along the chain they refer to.
# Assays:
# [1] = molecular target: T1, D97G mutant of alpha-sarcoglycan (Homo sapiens, UniProt Q16586, D97G); experiment: Western blot rescue of D97G mutant of alpha-sarcoglycan in HEK293 cell model; assay type: cell-based; conditions: FIG. 7; HEK293, 24 hours; E 10 μM, H 15 μM, I 10 μM, Q 10 μM, F 10 μM, R 5 μM, S 15 μM, T 15 μM, A 2 μM; relative to wild type
# T1 construct: expressed in transfected cells; host or cells: HEK293
# T1 sequence (Q16586 24-387 D97G): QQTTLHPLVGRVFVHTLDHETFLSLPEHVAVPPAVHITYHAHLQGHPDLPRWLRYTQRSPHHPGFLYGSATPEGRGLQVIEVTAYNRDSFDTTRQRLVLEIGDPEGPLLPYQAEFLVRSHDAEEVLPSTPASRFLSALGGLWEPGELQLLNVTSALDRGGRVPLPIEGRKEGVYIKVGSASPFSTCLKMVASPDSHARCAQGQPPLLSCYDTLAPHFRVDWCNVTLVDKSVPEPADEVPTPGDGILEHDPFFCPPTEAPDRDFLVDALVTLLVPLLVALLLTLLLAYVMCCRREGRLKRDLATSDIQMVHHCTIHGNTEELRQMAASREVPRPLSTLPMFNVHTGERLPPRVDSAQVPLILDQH
# Description: (§1) HEK293 cells expressing different α-SG mutants have been treated with the Compounds A, B, C, D, E, F, H, I, Q, R, S and T according to protocols developed in CF studies [Loo and Clarke 2011; Becq et al 2011, Pedemonte et al 2005; Wang et al 2006]. Concentration and time-dependent recovery of treated mutants have been evaluated by Western blotting. The proteasome inhibitor MG132, at the concentration of 10 μM, or DMSO at 1‰ concentration, have been used as positive and negative control, respectively.
# In FIG. 7 is shown the content of α-sarcoglycan protein present in HEK cells transfected with the D97G mutant of α-SG treated for 24 hours with either Compound E 10 μM, Compound H 15 μM, Compound I 10 μM, Compound Q 10 μM, Compound F 10 μM, Compound R 5 μM, Compound S 15 μM, Compound T 15 μM, Compound A 2 μM, or DMSO at 1‰ concentration, used as negative control, are shown. Cells expressing the wild type form of α-sarcoglycan have been used for comparison. At the end of treatments, cells were lysed and total proteins resolved by SDS-PAGE. Western blotting has been performed by using α-SG specific antibody and β-actin specific antibody, used to normalize loaded proteins. The expression of α-SG in different samples has been determined by densitometric analysis of western blotting experiments and indicated as percentage of the protein present in cells expressing the wild type form of α-sarcoglycan. […] The compounds tested induce the recovery of the D97G mutant that in some cases reached the level present in HEK cells expressing the wild type protein.
# [2] = molecular target: T2, R98H mutant of alpha-sarcoglycan (Homo sapiens, UniProt Q16586, R98H); experiment: Western blot rescue of R98H mutant of alpha-sarcoglycan in HEK293 cell model; assay type: cell-based; conditions: HEK293, 24 hours; for alpha-sarcoglycan protein level (western blot, densitometry), rescue of R98H mutant: A 2 μM
# T2 construct: expressed in transfected cells; host or cells: HEK293
# T2 sequence (Q16586 24-387 R98H): T1 sequence (Q16586 24-387 D97G) with G74D, R75H
# Description: as §1
# In FIG. 1 the result obtained by treating cells expressing the R98H mutant of α-SG for 24 hours with Compound C 5 μM, Compound B 10 μM, Compound E 10 μM, Compound F 10 μM, Compound A 2 μM, Compound D 10 μM are shown. At the end of treatments, cells were lysed and total proteins resolved by SDS-PAGE. Western blotting has been performed by using α-SG specific antibody and β-actin specific antibody, used to normalize loaded proteins (in FIG. 1, upper panel, a representative experiment is shown). The expression of α-SG in different samples has been determined by densitometric analysis of the western blotting experiments and indicated as percentage of the protein present in cells expressing the R98H mutant treated with DMSO (negative control).
# In FIG. 4 the result obtained by treating cells expressing the R98H mutant of α-SG for 24 hours with either Compound H 15 μM, Compound I 10 μM, Compound T 15 μM, Compound A 2 μM, or DMSO at 1‰ concentration, used as negative control, are shown. Cells expressing the wild type form of α-sarcoglycan have been used for comparison. At the end of treatments, cells were lysed and total proteins resolved by SDS-PAGE. Western blotting has been performed by using α-SG specific antibody and β-actin specific antibody, used to normalize loaded proteins (in upper panel of FIG. 4, a representative experiment is shown). The expression of α-SG in different samples has been determined by densitometric analysis of the western blotting experiments and indicated as percentage of the protein present in cells expressing the wild type form of α-sarcoglycan. […] The compounds tested induced the recovery of the R98H mutant to levels that in some cases were even greater than those present in HEK cells expressing the wild type protein.
# (§2) In FIG. 5 the result obtained by treating cells expressing the R98H mutant of α-SG for 24 hours with either increasing concentration of Compound R (1, 2.5, 5 μM) or DMSO at 1‰ concentration, used as negative control, are shown. Cells expressing the wild type form of α-sarcoglycan have been used for comparison. At the end of treatments, cells were lysed and total proteins resolved by SDS-PAGE. Western blotting has been performed by using α-SG specific antibody and β-actin specific antibody, used to normalize loaded proteins (in upper panel of FIG. 5, a representative experiment is shown). The expression of α-SG in different samples has been determined by densitometric analysis of western blotting experiments and indicated as percentage of the protein present in cells expressing the wild type form of α-sarcoglycan.
# as §2, with “6” for “5”, “Q (5, 10 μM), increasing concentration of Compound S (10, 15” for “R (1, 2.5, 5”, “1% o” for “1‰”, “6,” for “5,”
# [3] = FIG. 1, C 5 μM, B 10 μM, E 10 μM, F 10 μM, D 10 μM, relative to R98H cells treated with DMSO
# [4] = FIG. 4, H 15 μM, I 10 μM, T 15 μM, relative to cells expressing wild type
# [5] = FIG. 6, Compound Q 5, 10 μM, Compound S 10, 15 μM
# [6] = FIG. 6, highest concentrations (Q 10 μM, S 15 μM)
"alpha-sarcoglycan protein level (western blot, densitometry), rescue of D97G mutant [1]","alpha-sarcoglycan protein level (western blot, densitometry), rescue of R98H mutant [2, 3]","alpha-sarcoglycan protein level (western blot, densitometry), rescue of R98H mutant [2, 4]",Compound,also measured
promote the rescue,promote the rescue,promote the rescue,"COc1ccc(Cl)cc1Nc1nc(-c2sc(NC(=O)C(C)(C)C)nc2C)cs1 [Compound A, N-(2-(5-chloro-2-methoxyphenylamino)-4′-methyl-4,5′-bithiazol-2′-yl)pivalamide]",–
promote the rescue,–,promote the rescue,"COc1ccc2nc(Nc3nc(=O)c(C)c(C)[nH]3)nc(C)c2c1 [Compound T, 2-(6-methoxy-4-methylquinazolin-2-ylamino)-5,6-dimethylpyrimidin-4(1H)-one]",–
promote the rescue,–,–,"CC(=O)c1cccc(Nc2nc(-c3sc(NC(=O)c4ccccc4)nc3C)cs2)c1 [Compound Q, N-(2-(3-acetylphenylamino)-4′-methyl-4,5′-bithiazol-2′-yl)-benzamide]","alpha-sarcoglycan protein level, dose dependence of R98H mutant recovery [2, 5]: dose dependent recovery; alpha-sarcoglycan protein level of R98H mutant versus wild type protein [2, 6]: reached the level of the wild type protein"
promote the rescue,promote the rescue,–,"O=S(=O)(c1ccc(Cl)cc1)N1CCN(c2ccnc3cc(Cl)ccc23)CC1 [Compound F, 7-chloro-4-(4-(4-chlorophenylsulfonyl)piperazin-1-yl)quinoline]",–
promote the rescue,promote the rescue,–,"COc1ccc(Cl)cc1Nc1nc(-c2sc(NC(=O)c3ccccc3)nc2C)cs1 [Compound E, N-[2-(5-Chloro-2-methoxy-phenylamino)-4′-methyl-[4,5′]bithiazolyl-2′-yl]-benzamide]",–
promote the rescue,–,–,"C=Cc1ccc(-c2csc(Nc3ccccc3)n2)cc1 [Compound S, N-phenyl-4-(4-vinylphenyl)thiazol-2-amine]","alpha-sarcoglycan protein level, dose dependence of R98H mutant recovery [2, 5]: dose dependent recovery; alpha-sarcoglycan protein level of R98H mutant versus wild type protein [2, 6]: reached the level of the wild type protein"
promote the rescue,–,promote the rescue,"Cc1cc(C)c2c(C)cc(Nc3ccccc3)nc2c1 [Compound H, 4,5,7-trimethyl-N-phenylquinolin-2-amine]",–
promote the rescue,–,promote the rescue,"Cc1cc(Nc2ccc(Br)cc2)nc2ccccc12 [Compound I, N-(4-bromophenyl)-4-methylquinolin-2-amine]",–

Compound,"alpha-sarcoglycan protein level (western blot, densitometry), rescue of D97G mutant [1]","alpha-sarcoglycan protein level (western blot, densitometry), rescue of R98H mutant [2, 3]","alpha-sarcoglycan protein level (western blot, densitometry), rescue of R98H mutant [2, 4]",also measured
"COc1ccccc1Nc1nc(-c2sc(NC(=O)c3ccccc3)nc2C)cs1 [Compound R, N-(2-(2-methoxyphenylamino)-4′-methyl-4,5′-bithiazol-2′-yl)-benzamide]",promote the rescue,–,–,"alpha-sarcoglycan protein level, dose dependence of R98H mutant recovery ([2]; FIG. 5, Compound R 1, 2.5, 5 μM): dose dependent recovery; alpha-sarcoglycan protein level of R98H mutant versus wild type protein ([2]; FIG. 5, highest concentration (5 μM)): reached the level of the wild type protein"
